This is an account of results in BindingDB's records for doi:10.1021/jm101104z (University of Ljubljana, 2011).

In test [1] the target is 17beta-hydroxysteroid dehydrogenase type 1 (Homo sapiens). The experiment in a line: Displacement of [3H]estrone human recombinant 17beta-HSD1 expressed in Escherichia coli BL21 (DE3)-RIL by competitive inhibition assay in presence of bacterial homogenate.
For test [2] the target is unchanged. The experiment in a line: Displacement of [3H]estrone human recombinant 17beta-HSD1 expressed in Escherichia coli BL21 (DE3)-RIL by scintillation counting in presence of bacterial homogenate.
Test [3] shares this target. The test can be described thus: Inhibition of 17beta-HSD1.

pIC50, pKi: −log10 of the molar value.

Turning to `CC(=O)c1cc2ccc(OS(=O)(=O)C(F)(F)F)cc2oc1=O` [3-Acetyl-2-oxo-2H-chromen-7-yl trifluoromethanesulfonate], the pKi in test [1] is 6.76. In addition, the pIC50 in test [2] is 6.44.

Regarding `CC(=O)c1cc2ccc(-c3ccc(O)cc3)cc2oc1=O` [3-Acetyl-7-(4-hydroxyphenyl)-2H-chromen-2-one], the pKi in test [1] is 6.84. In addition, the pIC50 in test [2] was 6.57.

As to `COc1ccc(-c2ccc3cc(C(C)=O)c(=O)oc3c2)cc1` [3-Acetyl-7-(4-methoxyphenyl)-2H-chromen-2-one], in test [1], the pKi is 6.23. Besides, in test [2], the pIC50 is 5.95.

With `CC(=O)c1cc2ccc(-c3ccc(C)cc3)cc2oc1=O` [3-Acetyl-7-para-tolyl-2H-chromen-2-one], in test [1], the pKi is 6.23. Moreover, the pIC50 in test [2] is 5.91.

The compound `COc1cc(-c2nc3sc4c(O)cccc4c3c(=O)n2Cc2ccccc2)c(Br)c(OC)c1OC` [3-Benzyl-2-(2-bromo-3,4,5-trimethoxy-phenyl)-8-hydroxy-3H-benzo[4,5]thieno[2,3-d]pyrimidin-4-one] showed a pIC50 in test [3] of 8.30.
